Experimental data: patent publication US12006330B2, “Substituted macrocyclic compounds and related methods of treatment” (Alkermes, Inc., priority 2020, dated 2024)

Tests used:
[1] = biological target: T1, human orexin-2 receptor (OX2R) (Homo sapiens, UniProt O43614); experiment: Human OX2R IP1 assay; format: cell-based; conditions: T-Rex CHO cells stably overexpressing human OX2R; IP1 accumulation; 1 hr at 37 degrees C; mean EC50
T1 construct: expressed in transfected cells
T1 sequence (O43614 1-444): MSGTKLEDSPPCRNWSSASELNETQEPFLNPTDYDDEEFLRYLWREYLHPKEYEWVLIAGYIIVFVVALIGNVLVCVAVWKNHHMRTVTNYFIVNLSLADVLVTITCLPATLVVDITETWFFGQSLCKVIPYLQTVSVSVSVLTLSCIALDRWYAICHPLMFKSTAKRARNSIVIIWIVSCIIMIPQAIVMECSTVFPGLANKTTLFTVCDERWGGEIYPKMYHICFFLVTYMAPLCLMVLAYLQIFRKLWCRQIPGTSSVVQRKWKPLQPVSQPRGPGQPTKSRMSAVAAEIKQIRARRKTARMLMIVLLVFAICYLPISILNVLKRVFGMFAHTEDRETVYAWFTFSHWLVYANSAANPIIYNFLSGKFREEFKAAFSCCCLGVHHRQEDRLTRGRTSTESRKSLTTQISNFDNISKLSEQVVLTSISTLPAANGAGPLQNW
How it was run: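 T-Rex CHO cells stably expressing human OX2R, doxycycline-induced (1 μg/mL) overnight, treated with compounds 1 h at 37 °C in pH 7.4 buffer with 50 mM LiCl. IP1 accumulation read by HTRF competitive immunoassay after 1 h at room temperature; agonist EC50 reported as mean ± S.E.M.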

[2] = system: MDCK-MDR1 cells; experiment: MDCK-MDR1 permeability assay; format: in vitro ADME; conditions: MDCK-MDR1 cells; for Efflux ratio (ER): Papp B→A divided by Papp A→B, 3 μM, 2 hours; for Papp A → B (10^−6 cm/s): test compound 3 μM, 2 hours at 37 degrees C, apical to basolateral
How it was run: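 Test compound at 3 μM in HBSS was dosed apical-to-basolateral (with 100 μM Lucifer Yellow) and basolateral-to-apical across MDCK-MDR1 monolayers at 37 °C for 2 h. Receiver and donor samples were quantified by LC-MS/MS. Papp = dQ/dt×1/A×C0, efflux ratio = Papp(B→A)/Papp(A→B), and percent recovery was also derived.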

[3] = system: human hepatocytes; experiment: Hepatocytes stability assay (human hepatocytes); format: in vitro ADME; conditions: for CLint (μL/min/million cells): cryopreserved human hepatocytes (pool of 50 mixed gender), 1 μM test compound, 1×10^6 cell/mL, 37 degrees C; for Extraction Ratio (ER): human hepatocytes, scaled hepatic clearance divided by liver blood flow (well-stirred model, fu assumed unity)
How it was run: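 Compound at 1 μM (0.1% DMSO) was incubated with cryopreserved pooled human hepatocytes, 1×10^6 cells/mL in Krebs-Henseleit buffer, at 37 °C, sampled up to 240 min. Parent depletion by LC-MS/MS; half-life from first-order decay gave CLint, scaled to hepatic clearance by well-stirred model (fu assumed 1) and extraction ratio.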

Row | Structure (SMILES) | EC50 [1] [nM] | Efflux ratio (ER) [2] | Papp A → B (10^−6 cm/s) [2] | CLint (μL/min/million cells) [3] [μL/min/million cells] | Extraction Ratio (ER) [3]
1 | Cc1ncnc2c1[C@H]1CC[C@H](CC1)OC[C@H]1[C@@H](NS(C)(=O)=O)CCCN1C(=O)CO2 (stereo in doubt) [Compound 72] | < 10 | 49 | <0.091 10^−6 cm/s | <1.9 | <0.22
2 | O=C1COc2ccccc2[C@H]2CC[C@H](CC2)OCC2[C@@H](NS(=O)(=O)C3CCOC3)CCCN12 (stereo in doubt) [Compound 73] | < 10 | >100 | 0.23 10^−6 cm/s | 21 | 0.76
3 | Cc1ccnc2c1[C@H]1CC[C@H](CC1)OCC1[C@@H](NS(=O)(=O)C3CCOC3)CCCN1C(=O)CO2 (stereo in doubt) [Compound 90] | < 10 | 48 | 0.62 10^−6 cm/s | 11 | 0.61
